Where two headings read alike, the source gives them in different places.
What was measured:
APE1 [1] = target: T1, APE1 (Homo sapiens, UniProt P27695); test: Fluorogenic kinetic qHTS APE1 incision assay (primary screen and retest of cherrypicked samples); format: biochemical;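 note: purified APE1 cleaving a fluorophore/dark-quencher labelled 17-mer duplex DNA bearing a tetrahydrofuran AP site, fluorescence rise followed kinetically over the first 2 min, inhibition normalized to controls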
T1 construct: made in house
T1 sequence (P27695 whole entry): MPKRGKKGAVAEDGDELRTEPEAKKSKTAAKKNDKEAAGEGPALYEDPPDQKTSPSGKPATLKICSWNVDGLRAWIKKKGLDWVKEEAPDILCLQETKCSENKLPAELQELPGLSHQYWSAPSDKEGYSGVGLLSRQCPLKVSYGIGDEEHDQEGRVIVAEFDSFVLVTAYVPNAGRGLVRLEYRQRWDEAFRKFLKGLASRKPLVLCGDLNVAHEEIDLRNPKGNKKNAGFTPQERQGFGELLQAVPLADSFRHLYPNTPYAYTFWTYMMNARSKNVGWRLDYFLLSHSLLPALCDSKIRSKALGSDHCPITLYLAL
Description: All screening operations were performed on a fully integrated robotic system (Kalypsys, San Diego, CA) [28] with library plates screened proceeding from the lowest to the highest concentration to minimize compound carryover [26]. Vehicle-only plates, with DMSO being pin-transferred to the entire column 5–48 compound area, were included regularly throughout the screen in order to record any systematic shifts in assay signal. During the screen, reagent bottles were kept at 4°C and all liquid lines were covered with aluminum foil to minimize degradation.
Screening data were corrected and normalized, and concentration–effect relationships was derived using in-house developed algorithms [25].
To screen for inhibitors of APE1 incision activity, we employed a purified-enzyme biochemical assay with a model substrate featuring a red-shifted fluorescent reporter in combination with a dark non-emitting quencher. These moieties were incorporated as end labels onto a 17-mer double-stranded DNA fragment containing a centrally-located tetrahydrofuran AP site sugar mimetic, which serves as the APE1 cleavage site. Upon APE1-catalyzed strand scission immediately 5′ to the AP site analog, the shortened oligodeoxynucleotide carrying the fluorescent reporter spontaneously dissociates from the rest of the substrate, leading to an increase in fluorescence due to its spatial separation from the dark quencher (Figure 1A).
Using a high-speed whole-plate fluorescence imager, the assay data for the entire screen was conducted in kinetic mode, with the APE1 incision reaction being monitored over the initial linear time frame of 2 min (Figure 1B). Thus, any inhibition associated with each sample was computed from the alteration in fluorescence intensity over the time-course measurement period, after normalization against the appropriate controls (Figure 1B, inset).

[2] = target: double-stranded 17-mer DNA fragment; test: ThO (Thiazole Orange) DNA displacement assay; format: binding;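 note: miniaturized displacement of the intercalating dye from unlabeled duplex DNA, used to flag nonspecific DNA binders, chiefly intercalators, groove binders may be missed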
APE1 [3] = target: T1, APE1; test: Fluorescence polarization (FP) displacement assay of APE1 binding to AP-DNA probe; conditions: read-out: FP IC50;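 note: TAMRA 5′-labeled duplex DNA with THF abasic site (5 nM) and APE1 (20 nM), Mg2+-free buffer, 15 min at room temperature, inhibition seen as lowered polarization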
Description: Double-stranded oligodeoxynucleotide containing tetrahydrofuran (THF) abasic site labeled with TAMRA at the 5′-end was used as the labeled binding probe. Inhibition of APE1 binding to labeled probe was detected by a decrease in the fluorescence polarization (FP) of the fluorophore. Briefly, 4 µL mixture of 20 nM APE1 and 5 nM probe contained in the enzymatic assay buffer from which Mg^2+ was omitted, was dispensed into 1536-well Greiner black solid bottom plates. Compounds (23 nL) were transferred via pintool, and after a 15-minute incubation at room temperature, fluorescence polarization was measured in a ViewLux High-throughput CCD imager (480 nm excitation and 540 nm emission) to determine the degree of probe displacement caused by the test compounds.

APE1 [4] = target: T1, APE1; test: Gel-based radiotracer (32P) APE1 incision assay; format: biochemical; design: concentration or dose not given beside the values; conditions: percent incision shown; entries 1-112;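 note: APE1 incision reactions ran 5 min at 37 °C, with cleaved product and intact substrate resolved electrophoretically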
E. coli Endo IV = target: T2, E. coli Endo IV (Escherichia coli, UniProt P0A6C1); test: E. coli Endo IV profiling counterscreen; format: biochemical; conditions: for IC50: read-out: EndoIV IC50;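 for all read-outs here: selectivity counterscreen of candidate APE1 inhibitors against the bacterial endonuclease Endo IV, run in the same assay format as the primary APE1 high-throughput screen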
T2 construct: made in house
Excerpt: In order to screen out nonselective compounds, such as non-specific DNA binders and inhibitors of related enzymes, we used a miniaturized ThO DNA displacement assay and a counterscreen against the bacterial endonuclease E. coli Endo IV, respectively, following the previously published protocols [21].
To probe the selectivity of the candidate APE1 inhibitors, we tested them against E. coli EndoIV [36], employing the same assay as used in the HTS.

[5] = initial quantitative high-throughput screen, read-out: APE1 qHTS IC50
[6] = retest of cherrypicked sample, read-out: APE1 Retest IC50

Compound	IC50 (APE1 [1]; [5]) [µM]	IC50 (APE1 [1]; [6]) [µM]	IC50 ([2]; read-out: ThO-DNA binding IC50) [µM]	IC50 (APE1 [3]) [µM]	Radiotracer Assay (%Activity) (APE1 [4]) [%]	IC50 (E. coli Endo IV) [µM]	ThO assay signal behaviour (autofluorescence interference) [2]	Concentration response against EndoIV (E. coli Endo IV)	IC50 ([2]; read-out: ThO dye displacement IC50) [µM]
CCOC(=O)c1cc(-c2ccc(N3CCOCC3)cc2)nn1-c1ccccc1C(=O)O [MLS000759946]	2.5	14.1	> 57	15.8	27	> 57	–	–	–
O=C1CCCC(O)=C1N=Nc1cccc(C(=O)O)c1 [MLS000759952]	10	12.6	> 57	> 57	10	> 57	–	–	–
COc1ccc(N2CCN(C(=O)Cc3ccc(S(=O)(=O)N4CCOCC4)s3)CC2)cc1 [MLS000760918]	14.1	–	> 57	> 57	45	> 57	–	–	–
O=C(NN1C(=O)/C(=C/C=C/c2ccco2)SC1=S)c1ccncc1 [MLS000762704]	4.5	4.5	> 57	> 57	36	> 57	–	–	–
O=C(/C=C/c1ccco1)NCc1ccco1 [MLS000768482]	22.4	4.5	> 57	> 57	21	> 57	–	–	–
O=C(O)c1cccc(-c2ccc(/C=c3/sc4nc5ccccc5n4c3=O)o2)c1 [MLS000777053]	10	5	6.3	7.9	23	> 57	–	–	–
O=C(O)c1ccc(-n2cccc2/C=C2/NC(=O)N(c3ccccc3)C2=O)cc1 [MLS000778414]	2.5	4	> 57	12.6	37	> 57	–	–	–
O=C(O)CCCN1C(=O)/C(=C/C=C/c2ccco2)SC1=S [MLS000778631]	35.5	5	> 57	> 57	41	> 57	–	–	–
O=C(CCCN1C(=O)/C(=C/c2ccco2)SC1=S)Nc1ccccc1C(=O)O [MLS000778775]	19.9	12.6	> 57	5	3	> 57	–	–	–
O=c1ccc2[n+]([O-])c3ccc([O-])cc3oc-2c1.[Na+] [MLS000778776]	25.1	12.4	> 57	0.02	5	4.5	–	–	–
Cc1cc(/C=C2\C(=O)NC(=O)N(Cc3ccco3)C2=O)c(C)n1-c1ccc(C(=O)O)cc1 [MLS000807042]	1.1	14.1	> 57	> 57	33	> 57	–	–	–
Cc1ccc(S(=O)(=O)Nc2csc(C)c2C(=O)O)cc1 [MLS000850015]	11.2	15.8	> 57	> 57	49	> 57	–	–	–
O=c1cc(-c2ccc(O)cc2)oc2c(C3OCC(O)C(O)C3O)c(O)c(C3OC(CO)C(O)C(O)C3O)c(O)c12 (centres unmarked) [MLS000876755]	19.9	4.5	> 57	> 57	31	> 57	–	–	–
CC1OC(OCC2OC(Oc3c(-c4ccc(O)cc4)oc4cc(O)cc(O)c4c3=O)C(O)C(O)C2O)C(O)C(O)C1O (centres unmarked) [MLS000876823]	3.5	3.1	> 57	> 57	30	> 57	–	–	–
Cc1c(O)cc2c(c1O)C(=O)CC(c1ccc(O)cc1)O2 (centres unmarked) [MLS000876957]	1.6	4.5	> 57	> 57	44	> 57	–	–	–
CCC(C)C(=O)OCC1(c2ccc(C)cc2OC(=O)C(C)C)CO1 (centres unmarked) [MLS000876981]	8.9	11.2	> 57	> 57	36	> 57	–	–	–
COc1ccc(C(CC(=O)N2CCCCC2)c2c(OC)cc(OC)c3c(-c4ccccc4)cc(=O)oc23)cc1 (centres unmarked) [MLS000879461]	25.1	7.9	> 57	14.1	24	> 57	–	–	–
CCN(CC)C(=O)CC(c1cc(OC)c(OC)c(OC)c1)c1c(OC)cc(OC)c2c(-c3ccccc3)cc(=O)oc12 (centres unmarked) [MLS000879482]	22.4	5	> 57	12.6	37	> 57	–	–	–

Compound	IC50 (APE1 [1]; [5]) [µM]	IC50 (APE1 [1]; [6]) [µM]	IC50 ([2]; read-out: ThO-DNA binding IC50) [µM]	IC50 (APE1 [3]) [µM]	Radiotracer Assay (%Activity) (APE1 [4]) [%]	IC50 (E. coli Endo IV) [µM]	ThO assay signal behaviour (autofluorescence interference) [2]	Concentration response against EndoIV (E. coli Endo IV)	IC50 ([2]; read-out: ThO dye displacement IC50) [µM]
O=C(NC1CC1)c1cc(-c2ccco2)nc2ccccc12 [MLS001005620]	11.2	4.4	> 57	> 57	17	> 57	–	–	–
CC(=O)Oc1cc2cccc(OC(C)=O)c(=O)c2c(OC(C)=O)c1OC(C)=O [MLS001049122]	0.4	6.3	> 57	> 57	37	> 57	–	–	–
C[C@@]1(C(=O)O)NCCc2cc(O)c(O)cc21 [NCGC00024700]	1.8	–	> 57	> 57	17.1	> 57	–	–	–
CC(=O)[C@]1(O)Cc2c(O)c3c(c(O)c2[C@@H](O[C@H]2C[C@H](N)[C@H](O)[C@H](C)O2)C1)C(=O)c1ccccc1C3=O [NCGC00093976]	19.9	14.1	–	3.2	4.6	25.1	strong dose-dependent fluorescence signal increase	–	–
CN(C)C(=O)Nc1ccc(Cl)c(Cl)c1 [NCGC00094525]	20	44.7	> 57	> 57	36.6	> 57	–	–	–
CC(=O)OCC1=C(C(=O)[O-])N2C(=O)C(NC(=O)CCCC(N)C(=O)O)C2SC1.[Na+] (centres unmarked) [NCGC00094863]	22.4	–	> 57	> 57	41	> 57	–	–	–
O=c1oc2c(O)c(O)cc3c(=O)oc4c(O)c(O)cc1c4c23 [NCGC00094975]	0.01	0.01	0.1	31.6	2.4	> 57	–	–	–
NC(Cc1ccc(O)c(O)c1)C(=O)O (centres unmarked) [NCGC00095195]	0.3	0.1	> 57	> 57	28.3	> 57	–	–	–
Oc1cc(O)c2c(c1)OC(c1ccc(O)c(O)c1)C(O)C2 (centres unmarked) [NCGC00095270]	3.2	2.8	> 57	> 57	35.9	> 57	–	–	–
O=C1C=CC2=C3c4cc(O)c(O)cc4CC3(O)COC2=C1O (centres unmarked) [NCGC00095664]	0.1	0.1	11.2	15.8	4.1	> 57	–	–	–
O=c1c(O)c(Br)ccc2c(Br)c(O)c(O)c(O)c12 [NCGC00160279]	1.1	0.4	1.26	> 57	37.9	> 57	–	–	–
Cc1ccc2c(=O)c3ccccc3n(CCCN)c2c1C [NCGC00161415]	4.5	10	14.1	1.3	4.6	–	–	complete concentration response curves	–
CC(=O)N[C@H]1C(O[C@@H]2O[C@H](C[C@@H](O)[C@H]3O[C@@H](N4CCC(=O)NC4=O)[C@H](O)[C@@H]3O)[C@H](O)[C@H](O)[C@H]2NC(=O)/C=C/CCCCCCCCCCC(C)C)OC(CO)[C@@H](O)[C@@H]1O (some centres unmarked) [NCGC00161652]	7.9	2.5	> 57	31.6	26.5	> 57	–	–	–
Cc1c2c(c(O)c3c(O)cccc13)C(=O)O[C@H]2C1C(N(C)C)C(O)=C(C(N)=O)C(=O)[C@H]1O (some centres unmarked) [NCGC00163605]	2	1.6	–	2.2	2.7	> 57	strong dose-dependent fluorescence signal increase	–	–
COc1cc(O)c2c(c1)oc(=O)c1c3cc(O)c(O)cc3oc21 [NCGC00163667]	10	4.4	10	> 57	8.4	> 57	–	–	–
COc1cc(N(C)C)cc(CN(C)CCc2ccc([N+](=O)[O-])cc2)c1O [NCGC00165741]	3.2	0.3	> 57	> 57	10.6	> 57	–	–	–
CCN(CC)c1ccc(C(=C2C=CC(=[N+](CC)Cc3cccc(S(=O)(=O)[O-])c3)C=C2)c2ccc(N(CC)Cc3cccc(S(=O)(=O)O)c3)cc2)cc1 [NCGC00166058]	31.6	25.1	35.5	31.6	13.4	28.2	–	complete concentration response curves	–
phthalocyanine tetrasulfonate hydrate [NCGC00165867]	0.3	0.06	0.6	0.2	6.2	–	–	complete concentration response curves	0.631
